In test [1] the test system is COX-2 enzymes. In words: Immunohistochemistry assay of COX-2 enzymes in ex vivo porcine ear skin (Franz diffusion cell, diaminobenzidine staining). In kind it is cell-based. As to conditions: substance as donor phase in Franz cell, after six hours versus 0 hours.
Test [2] deals with COX-2. The test can be described thus: Western Blotting of COX-2 expression in porcine skin after topical application. In kind it is cell-based. As to conditions: topically applied, water control assigned 100%, FIG. 5. As to the method:
A Western Blotting experiment was carried out to determine the effect of topically applied representative compounds of the invention DGLA and 15-HETrE on the expression of COX-2 in porcine skin. Water was used as a control.
The porcine skin membranes (as described in Example 1) were gently cleaned with de-ionised water before being homogenized (Silverson, Chesham, UK) in a RIPA lysis buffer [50 mM Tris-HCl (PH 7.4), 150 mM NaCl, 1 mM PMSF, 1 mM EDTA, 5 μg mL^−1 aprotinin, 5 μg mL^−1 leupeptin, 1% Triton X-100, 1% sodium deoxycholate, 0.1% SDS]. After 15 min incubation on ice, the lysates were clarified by centrifugation at 14000×g for 2×15 min and the supernatant stored at −80° C. for subsequent protein analysis.
Aliquots of 30 μg total protein were separated by SDS-PAGE, transferred to nitrocelullose membranes using the Trans-Blot electrophoretic Transfer Cell and briefly stained with Ponceau S to verify effective transfer. Immunoblots were incubated for 1 h in a blocking solution [tris-buffered saline (TBS)-Tween 20 containing 5% (w/v) commercial skimmed milk powder (Marvel) at room temperature. After washing, the membrane was probed overnight at 4° C. with COX-2 antibody at 1:1000, 5-LOX at 1:1000 and iNOS at 1:500 in (1:20 and 1:100 western blocking reagent and sodium azide solution respectively made up to volume with TBS tween). […]
For orientation: In western blotting, separated proteins are transferred to a membrane and probed.

The test system of test [3] is skin. As to conditions: applied directly to the skin; Xi et al. 2000; cited from earlier work.

We go through three compounds from patent US9421163B2, “Topical compositions comprising polyunsaturated fatty acids” (Dignity Sciences Limited, priority 2009, dated 2016).

On to `CCCCCC(O)/C=C/C=C\C/C=C\CCCCCCC(=O)O` (stereo not drawn) [15-HETrE, 15-Hydroxy-eicosa-8Z, 11Z, 13E-trienoic acid], for which, in test [1], the “amount of dark stain (diaminobenzidine, COX-2 enzymes present in the skin)” value (shortened to “amount of dark stain”) is reported as “the amount of dark stain has reduced”. Also, in test [2], the “COX-2 expression relative to the control” value was “significant reduction”. In test [3], the antiproliferative properties result was “antiproliferative properties”.

For the compound `CCCCC/C=C\C/C=C\C/C=C\CCCCCCC(=O)O` [DGLA, Eicosa-8Z, 11Z, 14Z-trienoic acid], the “amount of dark stain” value in test [1] is “the amount of dark stain has reduced”. In test [2], the “COX-2 expression relative to the control” value was “significant reduction”.

For `CC(C(=O)O)c1cccc(C(=O)c2ccccc2)c1` (stereo not drawn) [ketoprofen, reference compound], the “amount of dark stain” value in test [1] is “the amount of dark stain has reduced”.
